Source: patent US10059740B2, “Integrin interaction inhibitors for the treatment of cancer” (H. LEE MOFFITT CANCER CENTER AND RESEARCH INSTITUTE, INC., priority 2010, dated 2018)
Read-outs that look alike come from different tables or passages of the source. Blank lines part the entries; values can stand above or below the compound they belong to. Starred links: 1 amine or outer side, 2 acyl side, 3 side chain; linkers in the order of their positions; H or OH if unused. Positions of bridges follow the written chain, without caps; N, C: chain ends. Non-standard residues stand in square brackets, D forms with d. Residues, ends and D or L forms follow the SMILES beside them. No end group written: not given here. *: point of attachment. dProlinol(O-CH2CO) = O=C(COC[C@H]1CCCN1[*:1])[*:2]; N(2-Aminoethyl)Gly = O=C(CN(CCN[*:3])[*:1])[*:2]; Nle = CCCC[C@H](N)C(=O)O; Ms = CS(=O)(=O)*

System: H929 myeloma cells
Type: cell-based
Conditions: for change in activity relative to the inverso peptide L-cINTEGRIN INTERACTION INHIBITORS: alanine scan and analogs, Table 4 legend; for activity relative to linear parent peptide (linear D-HYD1): in words; for bioactivity of cyclic III peptide analogs, in words: SAR discussion of Table 8
Method: H929 cells were treated for 24 hours with varying concentrations of peptide. Cell death was measured by Topro-3 staining and FACS analysis. The IC50 values were obtained from linear regression analysis and an average value was obtained from 3 independent experiments.
Table 4 legend: Structure activity relationship in H929 myeloma cells of cyclic INTEGRIN INTERACTION INHIBITORS derivatives. The minimal bioactive core sequence of INTEGRIN INTERACTION INHIBITORS WSVVM (SEQ ID NO:85) was cyclized using 2 novel reduced amide bond beta turn promoters and KLKLK (SEQ ID NO:27) as the non-recognition sequence. H929 cells were treated with varying concentrations of the indicated peptide for 24 h. Cell viability was determined using Topro-3 staining and FACS analysis after drug treatment. IC50 values were generated from linear regressions generated from the dose response curves (n=mean of 3 independent experiments).
Using combinatorial peptide libraries and a functional binding assay, several peptides have been identified that inhibited α2β1 and α6β1 integrin mediated adhesion of prostate cancer cells to fibronectin, laminin and collagen IV.^1 They identified an all D-amino acid containing peptide referred as HYD1 ([…]) (SEQ ID NO:278) that blocks binding of epithelial prostate carcinoma cells to extracellular matrix components.^2,3 Hazlehurst and co-workers have truncated the N- and C-termini and alanine scan studies identified MVISW (SEQ ID NO:279) as the likely core region of linear D-HYD1 required for biological activity. […] The pentapeptide (KLKLK) (SEQ ID NO:27) was selected as the non-recognition strand to improve the solubility. N- to C-terminus cyclization of linear peptides was done to restrict the number of conformations available to the linear peptide which increases the affinity of the cyclized peptide for its target when the constraint stabilizes the bound conformation of the peptide. We synthesized cyclic D-HYD1 using a novel methylsulfonamide aminoethyl glycine linker T1 that connects two anti-parallel strands. […] The inverso- (peptide 2, Table 4) and partially modified retro-inverso (PMRI) (peptide 10) pentapeptide sequences of the recognition strand of cyclic III (Integrin Interaction Inhibitors also known as cyclic L-HYD1) peptide analogs were subsequently investigated for their potential to block beta integrin mediated cell adhesion. The retro-inverso design of biologically active peptides is a well-known strategy to design all D-amino acid peptides from potentially bioactive all L-peptide sequences with increased stability^4-7.
A colony forming assay was used to compare induced cell death in H929 multiple myeloma cells. Cells were treated with integrin interaction inhibitors, shown in FIG. 5 and Table 4, and cell death was measured following 24 hour peptide treatment by TOPRO-3 staining and FACS analysis.

[1] = cyclic III peptide analogs, Table 8, H929 cells, TOPRO 3, read-out: IC50

IC50 (24 h): 69 µM
Compound: CC(C)C[C@@H]1NC(=O)[C@H](CCCCN)NC(=O)CN(S(C)(=O)=O)CCNC(=O)[C@H](C)NC(=O)[C@H](C(C)C)NC(=O)[C@H](C(C)C)NC(=O)[C@H](C)NC(=O)[C@H](Cc2c[nH]c3ccccc23)NC(=O)CN(S(C)(=O)=O)CCNC(=O)[C@H](CCCCN)NC(=O)[C@H](CC(C)C)NC(=O)[C@H](CCCCN)NC1=O [Peptide 12, KLKLKT1WAVVAT1]

Compound: CCCC[C@@H]1NC(=O)CN(S(C)(=O)=O)CCNC(=O)[C@H](CCCCN)NC(=O)[C@H](CC(C)C)NC(=O)[C@H](CCCCN)NC(=O)[C@H](CC(C)C)NC(=O)[C@H](CCCCN)NC(=O)COC[C@H]2CCCN2C(=O)[C@H](Cc2c[nH]c3ccccc23)NC(=O)[C@H](C)NC(=O)[C@H](CC(C)C)NC(=O)[C@H](C(C)C)NC1=O [Peptide 24, KLKLKT1N*VLAWT3] (Ms-[N(2-Aminoethyl)Gly][Nle]VLAW[dProlinol(O-CH2CO)]KLKLK; lactam 1-C)
IC50 [1]: 10 µM

Compound: CCCC[C@@H]1NC(=O)CN(S(C)(=O)=O)CCNC(=O)[C@H](CCCCN)NC(=O)[C@H](CC(C)C)NC(=O)[C@H](CCCCN)NC(=O)[C@H](CC(C)C)NC(=O)[C@H](CCCCN)NC(=O)COC[C@H]2CCCN2C(=O)[C@H](Cc2c[nH]c3ccccc23)NC(=O)[C@H](C)NC(=O)[C@H](Cc2ccccc2)NC(=O)[C@H](C(C)C)NC1=O [Peptide 26, KLKLKT1N*VFAWT3] (Ms-[N(2-Aminoethyl)Gly][Nle]VFAW[dProlinol(O-CH2CO)]KLKLK; lactam 1-C)
IC50 [1]: 9 µM

Compound: CSCC[C@@H]1NC(=O)CN(S(C)(=O)=O)CCNC(=O)[C@H](CCCCN)NC(=O)[C@H](CC(C)C)NC(=O)[C@H](CCCCN)NC(=O)[C@H](CC(C)C)NC(=O)[C@H](CCCCN)NC(=O)CN(S(C)(=O)=O)CCNC(=O)[C@H](Cc2c[nH]c3ccccc23)NC(=O)[C@H](C)NC(=O)[C@H](C(C)C)NC(=O)[C@H](C(C)C)NC1=O [III 3]
change in activity relative to the inverso peptide L-cINTEGRIN INTERACTION INHIBITORS (H929 cells): increase in activity

Compound: NorLeuVVAW: cyclic compound combining both modifications, recognition strand NorLeuVVAW (SEQ ID NO:41) ([Nle]VVAW; also: cyclic, closure not given here)
fold more potent than the parent linear HYD1 peptide (H929 cells): 30 fold

Compound: CSCC[C@@H]1NC(=O)CN(S(C)(=O)=O)CCNC(=O)[C@H](CCCCN)NC(=O)[C@H](CC(C)C)NC(=O)[C@H](CCCCN)NC(=O)[C@H](CC(C)C)NC(=O)[C@H](CCCCN)NC(=O)CN(S(C)(=O)=O)CCNC(=O)[C@H](Cc2c[nH]c3ccccc23)NC(=O)[C@H](CO)NC(=O)[C@H](C(C)C)NC(=O)[C@H](C)NC1=O [III 5]
change in activity relative to the inverso peptide L-cINTEGRIN INTERACTION INHIBITORS (H929 cells): increase in activity

Compound: CCCC[C@@H]1NC(=O)CN(S(C)(=O)=O)CCNC(=O)[C@H](CCCCN)NC(=O)[C@H](CC(C)C)NC(=O)[C@H](CCCCN)NC(=O)[C@H](CC(C)C)NC(=O)[C@H](CCCCN)NC(=O)COC[C@H]2CCCN2C(=O)[C@H](Cc2c[nH]c3ccccc23)NC(=O)[C@H](C)NC(=O)[C@H](C(C)C)NC(=O)[C@H](C(C)C)NC1=O [Peptide 16, KLKLKT1N*VVAWT3] (Ms-[N(2-Aminoethyl)Gly][Nle]VVAW[dProlinol(O-CH2CO)]KLKLK; lactam 1-C)
IC50 (H929 cells, 24 hours, Topro-3 and FACS, read-out: IC50 value in H929 cells): 1 µM

Compound: CSCC[C@H]1NC(=O)CN(S(C)(=O)=O)CCNC(=O)[C@@H](CCCCN)NC(=O)[C@@H](CC(C)C)NC(=O)[C@@H](CCCCN)NC(=O)[C@@H](CC(C)C)NC(=O)[C@@H](CCCCN)NC(=O)CN(S(C)(=O)=O)CCNC(=O)[C@@H](Cc2c[nH]c3ccccc23)NC(=O)[C@@H](CO)NC(=O)[C@@H](C(C)C)NC(=O)[C@@H](C(C)C)NC1=O [cyclic D-HYD1]
activity relative to linear parent peptide (linear D-HYD1) (H929 cells): twice as active | activity relative to linear parent peptide (linear D-HYD1) (H929 cells, listed as c-D-HYD1): about twice as active

Compound: CSCC[C@@H]1NC(=O)CN(S(C)(=O)=O)CCNC(=O)[C@H](CCCCN)NC(=O)[C@H](CC(C)C)NC(=O)[C@H](CCCCN)NC(=O)[C@H](CC(C)C)NC(=O)[C@H](CCCCN)NC(=O)CN(S(C)(=O)=O)CCNC(=O)[C@H](Cc2c[nH]c3ccccc23)NC(=O)[C@H](C)NC(=O)[C@H](C(C)C)NC(=O)[C@H](C(C)C)NC1=O [Peptide 4, KLKLKT1MVVAWT1]
bioactivity of cyclic III peptide analogs, in words: significantly improved the bioactivity

Compound: NorLeuVVSW: cyclic compound with recognition strand NorLeuVVSW (SEQ ID NO:39), methionine replaced by nor-Leucine ([Nle]VVSW; also: cyclic compound, closure not given here)
fold more potent than the parent linear HYD1 peptide (H929 cells): 15 fold

IC50 (24 h): 13 µM
Compound: CCCC[C@@H]1NC(=O)CN(S(C)(=O)=O)CCNC(=O)[C@H](CCCCN)NC(=O)[C@H](CC(C)C)NC(=O)[C@H](CCC(N)=O)NC(=O)[C@H](CC(C)C)NC(=O)[C@H](CCCCN)NC(=O)COC[C@H]2CCCN2C(=O)[C@H](Cc2c[nH]c3ccccc23)NC(=O)[C@H](C)NC(=O)[C@H](C(C)C)NC(=O)[C@H](C(C)C)NC1=O [Peptide 17, KLKQKT1N*VVAWT3] (Ms-[N(2-Aminoethyl)Gly][Nle]VVAW[dProlinol(O-CH2CO)]KLQLK; lactam 1-C)

Compound: CCCC[C@@H]1NC(=O)CN(S(C)(=O)=O)CCNC(=O)[C@H](CCCCN)NC(=O)[C@H](CC(C)C)NC(=O)[C@H](CCCCN)NC(=O)[C@H](CC(C)C)NC(=O)[C@H](CCCCN)NC(=O)CN(S(C)(=O)=O)CCNC(=O)[C@H](Cc2c[nH]c3ccccc23)NC(=O)[C@H](CO)NC(=O)[C@H](C(C)C)NC(=O)[C@H](C(C)C)NC1=O [Peptide 8, KLKLKT1N*VVSWT1]
bioactivity of cyclic III peptide analogs, in words: further increase of the peptide's bioactivity

Compound: CSCC[C@@H]1NC(=O)CN(S(C)(=O)=O)CCNC(=O)[C@H](CCCCN)NC(=O)[C@H](CC(C)C)NC(=O)[C@H](CCCCN)NC(=O)[C@H](CC(C)C)NC(=O)[C@H](CCCCN)NC(=O)CN(S(C)(=O)=O)CCNC(=O)[C@H](C)NC(=O)[C@H](CO)NC(=O)[C@H](C(C)C)NC(=O)[C@H](C(C)C)NC1=O [III 2]
change in activity relative to the inverso peptide L-cINTEGRIN INTERACTION INHIBITORS (H929 cells): decrease in activity

Compound: CCCC[C@@H]1NC(=O)CN(S(C)(=O)=O)CCNC(=O)[C@H](CCCCN)NC(=O)[C@H](CC(C)C)NC(=O)[C@H](CCCCN)NC(=O)[C@H](CC(C)C)NC(=O)[C@H](CCCCN)NC(=O)COC[C@H]2CCCN2C(=O)[C@H](Cc2c[nH]c3ccccc23)NC(=O)[C@H](C)NC(=O)[C@H]([C@@H](C)CC)NC(=O)[C@H](C(C)C)NC1=O [Peptide 25, KLKLKT1N*VIAWT3] (Ms-[N(2-Aminoethyl)Gly][Nle]VIAW[dProlinol(O-CH2CO)]KLKLK; lactam 1-C)
IC50 [1]: 10 µM

IC50 (24 h): 19 µM
Compound: CCCC[C@@H]1NC(=O)CN(S(C)(=O)=O)CCNC(=O)[C@H](CCC(N)=O)NC(=O)[C@H](CC(C)C)NC(=O)[C@H](CCCCN)NC(=O)[C@H](CC(C)C)NC(=O)[C@H](CCCCN)NC(=O)COC[C@H]2CCCN2C(=O)[C@H](Cc2c[nH]c3ccccc23)NC(=O)[C@H](C)NC(=O)[C@H](C(C)C)NC(=O)[C@H](C(C)C)NC1=O [Peptide 19, KLKLQT1N*VVAWT3] (Ms-[N(2-Aminoethyl)Gly][Nle]VVAW[dProlinol(O-CH2CO)]KLKLQ; lactam 1-C)

Compound: MVVAW: cyclic compound with recognition strand MVVAW (SEQ ID NO:35), S replaced by A (also: recognition strand of a larger cyclic compound)
fold more potent than the parent linear HYD1 peptide (H929 cells): approximately 10 fold

IC50 (24 h): 25 µM
Compound: CCCC[C@@H]1NC(=O)CN(S(C)(=O)=O)CCNC(=O)[C@H](CCCCN)NC(=O)[C@H](CCC(N)=O)NC(=O)[C@H](CCCCN)NC(=O)[C@H](CC(C)C)NC(=O)[C@H](CCCCN)NC(=O)COC[C@H]2CCCN2C(=O)[C@H](Cc2c[nH]c3ccccc23)NC(=O)[C@H](C)NC(=O)[C@H](C(C)C)NC(=O)[C@H](C(C)C)NC1=O [Peptide 21, KLKQKT1N*VVAWT3] (Ms-[N(2-Aminoethyl)Gly][Nle]VVAW[dProlinol(O-CH2CO)]KLKQK; lactam 1-C)

IC50 (24 h): 41 µM
Compound: CCCC[C@@H]1NC(=O)[C@H](C(C)C)NC(=O)[C@H](C)NC(=O)[C@H](C)NC(=O)[C@H](Cc2c[nH]c3ccccc23)NC(=O)CN(S(C)(=O)=O)CCNC(=O)[C@H](CCCCN)NC(=O)[C@H](CC(C)C)NC(=O)[C@H](CCCCN)NC(=O)[C@H](CC(C)C)NC(=O)[C@H](CCCCN)NC(=O)CN(S(C)(=O)=O)CCNC1=O [Peptide 14, KLKLKT1WAAVN*T1]
